Data set [1] in a line: plasma stability test with alteplase added, rat plasma. Format: in vitro ADME. Particulars: Rat plasma + rt-PA (50 µg/mL alteplase), 25 µM. The protocol: (§1) Solution preparation: An appropriate amount of a test polypeptide compound was weighed out and dissolved in an appropriate amount of 1× PBS to form a 1 mM test solution. NA-1 and NoNO42 were used as positive drugs, propantheline bromide was used as a human plasma test control, and lovastatin was used as a rat plasma test control. Plasma stability test: 12.5 µL of the 1 mM test solution was added to a 495 µL pre-incubated plasma sample. […] For each incubation time, two parallel samples were set. Subsequently, 200 µL of stop solution was added to stop the incubation, and the mixtures were vortexed for 5 min. Then the mixtures were centrifuged at 10,000 rpm at 4 °C for 10 min to remove the protein in the sample, and 70 µL of the supernatant was transferred to a new 96-well plate (70 µL of water was added to each well beforehand) and well mixed. Plasma stability test with alteplase added: An appropriate amount of solid alteplase was weighed out, and an appropriate volume of water was added. The mixture was vortexed to dissolve alteplase, forming a 1 mg/mL solution of alteplase. 250 µL of the 1 mg/mL solution of alteplase was added to 4750 µL of plasma to form a plasma sample containing 50 µg/mL alteplase. The other procedures were the same as in the aforementioned "plasma stability test", with the difference being that the plasma sample containing 50 µg/mL alteplase was used instead of plasma. […] Sample pretreatment: […] LC-MS analysis: […] (2) Mass-spectrometric conditions: The mass spectrometry analysis used an electrospray ionization (ESI) source, a positive ion analysis mode, and a multi-reaction monitoring (MRM) scan mode. […] The plasma stability of the polypeptide compound

The next data set has as its system rabbit whole blood. Description: hemolysis risk test in rabbit whole blood. Format: cell-based. The following applies: concentration range of 1 to 50 µM. The protocol: Preparation of red blood cell suspension: 100 µL of fresh whole blood was collected, and 900 µL of 1× PBS solution was then added. The mixture was shaken on a plate shaker at 30 rpm for 5 min and then centrifuged at 1000 g for 5 min, and the supernatant was discarded. The above washing step was repeated until the supernatant no longer appeared red. The suspension was set aside for later use.
Preparation of test polypeptide solutions: An appropriate amount of 1× PBS solution was added to a powdered polypeptide, and the polypeptide was dissolved to form a standard stock solution. The stock solution was then diluted with 1× PBS to form test solutions with concentrations of 1, 3, 10, 30, 100, and 300 µg/mL, and two replicate wells were set for each concentration. Meanwhile, blank 1× PBS was used as a negative control, and a 1× PBS solution containing 0.1% Triton X-100 was used as a positive control.
Incubation: A test solution (500 µL) was added to the red blood cell suspension, and then the mixture was well shaken on a plate shaker at 30 rpm for 5 min, incubated at 37 °C for 1 h, and centrifuged at 1000 g for 5 min.
100 µL of the supernatant was transferred to a single well of a microplate. The absorbance at 540 nm was measured using a SpectraMax M5 microplate reader, and data analysis was performed using GraphPad Prism 9. The hemolysis rate (%) was calculated using the formula: (test sample absorbance - negative control absorbance) / (positive control absorbance - negative control absorbance) × 100%. A rate of less than 5% indicates the absence of hemolysis, while a rate of greater than 5% indicates the presence of hemolysis. Table 3. Testing of the hemolysis risk of the polypeptide compound
A method similar to that in section 3.3.2 was adopted, with the difference being that this test example used fresh rabbit whole blood instead.

In a further data set the target is T1, human PSD95-PDZ2 (Homo sapiens, UniProt P78352).
T1 construct: PDZ2 (155-249, the Flag-His-Avitag-TEVsite tag is italicized); made in house; host or cells: E. coli BL21-DE3 (PET vector)
The data set can be described thus: binding ELISA with Biotin-PDZ2.

Data set [2] is described as follows: plasma stability test with alteplase added, human plasma. The following applies: Human plasma + rt-PA (50 µg/mL alteplase), 25 µM. In kind it is in vitro ADME. Here is the method: as §1
Data set [3] is described as follows: plasma stability test, rat plasma. Format: in vitro ADME. The following applies: Rat plasma, 25 µM. The protocol:
as §1, with “mixed.” for “mixed. Plasma stability test with alteplase added: An appropriate amount of solid alteplase was weighed out, and an appropriate volume of water was added. The mixture was vortexed to dissolve alteplase, forming a 1 mg/mL solution of alteplase. 250 µL of the 1 mg/mL solution of alteplase was added to 4750 µL of plasma to form a plasma sample containing 50 µg/mL alteplase. The other procedures were the same as in the aforementioned "plasma stability test", with the difference being that the plasma sample containing 50 µg/mL alteplase was used instead of plasma.”

Several values for one entry are separate records, joined by “and”; a condition that tells them apart may be missing. Equal values may be shown once. No end group written: not given here.

T1 sequence (P78352 155-249): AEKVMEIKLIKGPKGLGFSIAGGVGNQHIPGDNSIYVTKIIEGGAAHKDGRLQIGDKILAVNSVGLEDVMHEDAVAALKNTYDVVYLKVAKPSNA

Turning to “YGRKKRRQRRRKLSSIESDV [NA-1, YGRKKRRQR RRKLSSIESDV, reference compound]”, the “Relative remaining compound content (%)” value in data set [1] (0min (standard 100%)) was 100.0%; in data set [1] (10min), 6.3% and 14.0%; in data set [1] (20min) it was 2.2%; in data set [1] (30min), 0.8%; in data set [2] (0min (standard 100%)), 100.0%; in data set [2] (10min), 23.9%. The “Relative remaining compound content (%)” value is 7.6% in data set [2] (20min); 3.4% in data set [2] (30min); 0.9% in data set [2] (60min); 0.3% in data set [2] (120min); 100.0% in data set [3] (0min (standard 100%)); 103.7% in data set [3] (10min). Further, the “Relative remaining compound content (%)” value in data set [3] (20min) was determined as 77.5%; in data set [3] (30min), 69.5%; in data set [3] (60min) it was 54.4%; in data set [3] (120min) it was 42.1%. Besides, in the data set with rabbit whole blood, the hemolysis rates result is “less than 5%”. For the same sequence, the EC50 (as a rule, the concentration at which the effect is half-maximal) on human PSD95-PDZ2 turned out to be 83 nM. Also, the amount remaining (in general, what is left of the initial amount, in per cent) at 10 min, 25 µM in data set [3] (rat, plasma, 10min, read-out: Relative remaining compound content (%)) stood at 94.1%. Further, the share remaining at 20 min, 25 µM in data set [3] (rat, plasma, 20min, read-out: Relative remaining compound content (%)) was 83%. The fraction remaining at 0.5 h, 25 µM in data set [3] (rat, plasma, 30min, read-out: Relative remaining compound content (%)) is 73.3%. The fraction remaining at 1 h, 25 µM in data set [3] (rat, plasma, 60min, read-out: Relative remaining compound content (%)) was found to be 57%. For the same sequence, the fraction remaining at 2 h, 25 µM in data set [3] (rat, plasma, 120min, read-out: Relative remaining compound content (%)) is 28.4%.

Values taken from patent publication EP4650362A1, “NEUROPROTECTIVE PSD-95 POLYPEPTIDE INHIBITOR AND USE THEREOF” (Beijing Tuo Jie Biopharmaceutical Co. Ltd., priority 2023, dated 2024).
